Source: patent publication EP0745595A1, “3-(3-Aryloxyphenyl)-1-(substituted methyl)-s-triazine-2,4,6-oxo or thiotrione herbicidal agents” (American Cyanamid Company, priority 1995, dated 1996)

Tests used:
Assay type in all cases: in vivo
[1] = system: GALIUM APARINE; assay: Postemergence herbicidal evaluation, GALAP (Galium); set-up: key to GALAP rating / Herbicidal effect rating, GALAP / GALAP: 0-9 visual rating scale vs untreated control; conditions: for GALAP, herbicide rating (0-9): rated four to five weeks after treatment, averaged
Outline: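 Galium (GALAP) seedlings were raised in jiffy flats for about two weeks, then sprayed with test compounds dispersed in 50/50 acetone/water containing 0.5% TWEEN®20, delivered through a nozzle at 40 psi. Plants were kept on greenhouse benches and visually rated 0-9 against a control four to five weeks later; repeat tests were averaged.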

[2] = system: GLYCINE MAX(L) MERR. CV. WILLIAMS; assay: Postemergence herbicidal evaluation, GLXMAW (Soybean, Williams); set-up: key to GLXMAW rating / Herbicidal effect rating, GLXMAW / GLXMAW: 0-9 visual rating scale vs untreated control
Outline: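 Soybean seedlings (Williams) were raised in jiffy flats for roughly two weeks, then sprayed postemergence through a nozzle at 40 psi with test compound dispersed in 50/50 acetone/water containing 0.5% TWEEN®20. Treated plants were kept on greenhouse benches under normal care and visually rated on a 0-9 scale four to five weeks later.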

[3] = system: ORYZA SATIVA, L. TEBONNET; assay: Postemergence herbicidal evaluation, ORYSAT (Rice, Tebonnet); set-up: key: 0-9 visual rating scale vs untreated control
Outline: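 Rice (Tebonnet) seedlings raised in jiffy flats for roughly two weeks were sprayed postemergence at 40 psi with compound dispersed in 50/50 acetone/water containing 0.5% TWEEN®20. The plants were then kept on greenhouse benches under standard care and visually scored on a 0-9 scale against a control four to five weeks after treatment.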

[4] = system: GALIUM APARINE; assay: Preemergence herbicidal evaluation, GALAP (Galium); conditions: four to five weeks after treatment
Outline: (§1)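 Seeds mixed with potting soil were planted on about one inch of soil in cups, then sprayed with aqueous acetone solution of test compound at about 0.125 to 0.50 kg per hectare. Plants grown under greenhouse conditions; visual rating on a 0-9 scale versus untreated control at 4-5 weeks.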

[5] = system: SAGITTARIA PYGMAEA, L.; assay: Preemergence weed control under flooded paddy conditions, SAGPY (Arrowhead (Pygmaea)); conditions: for SAGPY: pre-weed; for SAGPY herbicidal rating: preemergence weeds, rated three to four weeks after treatment
Outline: (§2)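 Seeds or propagules sown in top 0.5 cm of silt loam in undrained containers, flooded 1.5 to 3 cm throughout. Compounds in aqueous/acetone 50/50 v/v pipetted into flood water at about 0.5, 0.25, 0.125 and 0.063 kg/ha. Visual 0-9 rating versus control after three to four weeks in greenhouse.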

[6] = system: CASSIA OBTUSIFOLIA, L.; assay: Preemergence herbicidal evaluation, CASOB (Sicklepod); conditions: for CASOB rating: four to five weeks after treatment; for CASOB herbicidal rating: rated four to five weeks after treatment
Outline: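 Seeds of various monocot and dicot plants, including sicklepod, were each mixed with potting soil and sown on roughly one inch of soil in separate pint cups for preemergence testing. Treated cups were kept on greenhouse benches, watered and maintained conventionally. Four to five weeks after treatment, each cup was visually rated on a 0-9 scale against a control.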

[7] = system: ECHINOCHLOA ORYZOIDES (ARD.)FRITSCH; assay: Preemergence weed control under flooded paddy conditions, ECHORC (Watergrass (Calif.)); conditions: for ECHORC herbicidal rating: preemergence weeds, rated three to four weeks after treatment
Outline: as §2

[8] = system: CYPERUS IRIA; assay: Preemergence weed control under flooded paddy conditions, CYPIR (Rice Flatsedge); conditions: for CYPIR herbicidal rating: preemergence weeds, rated three to four weeks after treatment
Outline: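 Seeds or propagating organs of rice flatsedge were planted in the top 0.5 cm of silt loam soil in 32 oz. plastic containers, 10.5 cm across and without drainage holes. Water was kept 1.5 to 3 cm above the soil throughout. Treated containers were kept on greenhouse benches, and herbicidal effect was visually rated on a 0-9 scale against a control.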

[9] = system: […], PRESL.; assay: Preemergence weed control under flooded paddy conditions, MOOVA (Monochoria); conditions: for MOOVA herbicidal rating: preemergence weeds, rated three to four weeks after treatment
Outline: as §2

[10] = system: IPOMOEA SPP.; assay: Preemergence herbicidal evaluation, IPOSS (Morningglory spp.); conditions: rated four to five weeks after treatment
Outline: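 Seeds of morningglory (Ipomoea spp.) were mixed with potting soil and sown on roughly one inch of soil in pint cups for a preemergence herbicide test. The cups were put on greenhouse benches, watered, and maintained by standard greenhouse practice. Four to five weeks after treatment each cup was scored visually on a 0-9 scale against a control.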

[11] = system: GLYCINE MAX(L) MERR. CV. WILLIAMS; assay: Preemergence herbicidal evaluation, GLXMAW (Soybean, Williams); conditions: rated four to five weeks after treatment
Outline: as §1

[12] = system: ZEA MAYS L.; assay: Preemergence herbicidal evaluation, ZEAMX (Corn, Field); conditions: rated four to five weeks after treatment
Outline: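 Corn (Zea mays) seeds were mixed with potting soil and planted on about one inch of soil in pint cups, then treated preemergence. Cups were kept on greenhouse benches, watered and maintained conventionally, and after four to five weeks were visually rated on a 0-9 scale versus an untreated control.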

[13] = system: CYPERUS SEROTINUS, ROTTB.; assay: Preemergence weed control under flooded paddy conditions, CYPSE (Flatsedge); conditions: 0.500 kg/ha, preemergence, 3-4 weeks after treatment
Outline: as §2

[14] = 0.500 kg/ha, preemergence, 3-4 weeks after treatment

Structure (SMILES): COC(=O)Cn1c(=O)n(C)c(=O)n(-c2cc(Oc3ccc(C(F)(F)F)cc3Cl)ccc2[N+](=O)[O-])c1=O [Compound 3, Methyl 3-{5-[(2-chloro-α,α,α-trifluoro-p-tolyl)oxy]-2-nitrophenyl}tetrahydro-5-methyl-2,4,6-trioxo-s-triazine-1(2H)-acetate]
- Herbicidal effect rating, GALAP ([1]; 0.031 kg/ha): 8.2
- Herbicidal effect rating, GALAP ([1]; 0.063 kg/ha): 8.3
- Herbicidal effect rating, GALAP ([1]; 0.125 kg/ha): 8.7
- Herbicidal effect rating, GALAP ([1]; 0.250 kg/ha): 8.4
- Herbicidal effect rating, GLXMAW ([2]; 0.031 kg/ha): 4.8
- Herbicidal effect rating, GLXMAW ([2]; 0.063 kg/ha): 5.3
- Herbicidal effect rating, GLXMAW ([2]; 0.125 kg/ha): 5.9
- Herbicidal effect rating, GLXMAW ([2]; 0.250 kg/ha): 6.3
- Herbicidal effect rating, ORYSAT ([3]; 0.031 kg/ha): 4.9
- Herbicidal effect rating, ORYSAT ([3]; 0.063 kg/ha): 5.1
- Herbicidal effect rating, ORYSAT ([3]; 0.125 kg/ha): 5.7
- Herbicidal effect rating, ORYSAT ([3]; 0.250 kg/ha): 6.6
- GALAP rating ([4]; Rate 0.125 kg/ha): 7.3
- GALAP rating ([4]; Rate 0.250 kg/ha): 8.4
- GALAP rating ([4]; Rate 0.500 kg/ha): 9.0
- SAGPY ([5]; Rate 0.031 kg/ha): 0.0
- SAGPY ([5]; Rate 0.063 kg/ha): 0.0
- SAGPY ([5]; Rate 0.125 kg/ha): 0.0
- SAGPY ([5]; Rate 0.250 kg/ha): 0.0
- SAGPY herbicidal rating ([5]; Rate 0.063 kg/ha): 0.0
- SAGPY herbicidal rating ([5]; Rate 0.125 kg/ha): 0.0
- SAGPY herbicidal rating ([5]; Rate 0.250 kg/ha): 0.0
- SAGPY herbicidal rating ([5]; Rate 0.500 kg/ha): 0.0

Structure (SMILES): COC(=O)Cn1c(=O)n(C)c(=O)n(-c2cc(Oc3c(F)cc(C(F)(F)F)cc3Cl)ccc2Br)c1=O [Compound 2, Methyl 3-{2-bromo-5-[(2-chloro-α,α,α,6-tetrafluoro-p-tolyl)oxy]phenyl}tetrahydro-5-methyl-2,4,6-trioxo-s-triazine-1(2H)-acetate]
- Herbicidal effect rating, GALAP ([1]; 0.063 kg/ha): 9.0
- Herbicidal effect rating, GALAP ([1]; 0.125 kg/ha): 9.0
- Herbicidal effect rating, GALAP ([1]; 0.250 kg/ha): 9.0
- Herbicidal effect rating, GALAP ([1]; 0.500 kg/ha): 9.0
- GALAP, herbicide rating (0-9) ([1]; Rate 0.125 kg/ha): 9.0
- GALAP, herbicide rating (0-9) ([1]; Rate 0.250 kg/ha): 9.0
- GALAP, herbicide rating (0-9) ([1]; Rate 0.500 kg/ha): 9.0
- Herbicidal effect rating, GLXMAW ([2]; 0.063 kg/ha): 6.9
- Herbicidal effect rating, GLXMAW ([2]; 0.125 kg/ha): 7.2
- Herbicidal effect rating, GLXMAW ([2]; 0.250 kg/ha): 8.0
- Herbicidal effect rating, GLXMAW ([2]; 0.500 kg/ha): 8.3
- Herbicidal effect rating, ORYSAT ([3]; 0.063 kg/ha): 6.3
- Herbicidal effect rating, ORYSAT ([3]; 0.125 kg/ha): 6.3
- Herbicidal effect rating, ORYSAT ([3]; 0.250 kg/ha): 7.0
- Herbicidal effect rating, ORYSAT ([3]; 0.500 kg/ha): 7.5
- CASOB rating ([6]; Rate 0.125 kg/ha): 9.0
- CASOB rating ([6]; Rate 0.250 kg/ha): 9.0
- CASOB rating ([6]; Rate 0.500 kg/ha): 9.0
- GALAP rating ([4]; Rate 0.125 kg/ha): 9.0
- GALAP rating ([4]; Rate 0.250 kg/ha): 9.0
- GALAP rating ([4]; Rate 0.500 kg/ha): 9.0
- ECHORC herbicidal rating ([7]; Rate 0.063 kg/ha): 9.0
- ECHORC herbicidal rating ([7]; Rate 0.125 kg/ha): 9.0
- ECHORC herbicidal rating ([7]; Rate 0.250 kg/ha): 9.0
- ECHORC herbicidal rating ([7]; Rate 0.500 kg/ha): 9.0
- CYPIR herbicidal rating ([8]; Rate 0.063 kg/ha): 9.0
- CYPIR herbicidal rating ([8]; Rate 0.125 kg/ha): 9.0
- CYPIR herbicidal rating ([8]; Rate 0.250 kg/ha): 9.0
- CYPIR herbicidal rating ([8]; Rate 0.500 kg/ha): 9.0
- MOOVA herbicidal rating ([9]; Rate 0.063 kg/ha): 9.0
- MOOVA herbicidal rating ([9]; Rate 0.125 kg/ha): 9.0
- MOOVA herbicidal rating ([9]; Rate 0.250 kg/ha): 9.0
- MOOVA herbicidal rating ([9]; Rate 0.500 kg/ha): 9.0

Structure (SMILES): COC(=O)Cn1c(=O)n(C)c(=O)n(-c2cc(Oc3ccc(SC)cc3Cl)ccc2[N+](=O)[O-])c1=O [Compound 34, Methyl 3-{5-[2-chloro-4-(methylthio)-phenoxy]-2-nitrophenyl}tetrahydro-5-methyl-2,4,6-trioxo-s-triazine-1(2H)-acetate]
- CASOB herbicidal rating ([6]; Rate 0.125 kg/ha): 0.0
- CASOB herbicidal rating ([6]; Rate 0.250 kg/ha): 0.0
- CASOB herbicidal rating ([6]; Rate 0.500 kg/ha): 0.0
- IPOSS herbicidal rating ([10]; Rate 0.125 kg/ha): 0.0
- IPOSS herbicidal rating ([10]; Rate 0.250 kg/ha): 0.0
- IPOSS herbicidal rating ([10]; Rate 0.500 kg/ha): 0.0
- GLXMAW herbicidal rating ([11]; Rate 0.125 kg/ha): 0.0
- GLXMAW herbicidal rating ([11]; Rate 0.250 kg/ha): 0.0
- GLXMAW herbicidal rating ([11]; Rate 0.500 kg/ha): 0.0
- ZEAMX herbicidal rating ([12]; Rate 0.125 kg/ha): 0.0
- ZEAMX herbicidal rating ([12]; Rate 0.250 kg/ha): 0.0
- ZEAMX herbicidal rating ([12]; Rate 0.500 kg/ha): 0.0
- Herbicidal effect rating, ECHORC [7, 14]: 0.0
- Herbicidal effect rating, CYPIR [8, 14]: 0.0
- Herbicidal effect rating, CYPSE [13]: 0.0
- Herbicidal effect rating, MOOVA [9, 14]: 0.0
- Herbicidal effect rating, SAGPY [5, 14]: 0.0
